Values of other authors, collected in patent US9670196B2, “Thiazole-substituted aminoheteroaryls as Spleen Tyrosine Kinase inhibitors” (Merck Sharp & Dohme Corp., priority 2013, dated 2017).

What was measured:
[1] = phase II clinical trial for allergic rhinitis; cited from earlier work
[2] = dosed intranasally, phase I/II study, allergic rhinitis; cited from earlier work

Which efficacy versus placebo [1] does the source give for `Oc1cccc(Nc2ncc(F)c(Nc3cccc(O)c3)n2)c1` [Example R112] here?
Its efficacy versus placebo is “lack of efficacy versus placebo”.

What about the PGD2 [2] of the same compound?
The PGD2 was “statistically significant decrease”.

And the clinical safety [2]?
The clinical safety was “safe across a range of indicators”.
